Reference: patent US10544095B2 (Pfizer Inc., priority 2015, dated 2020)

Each compound was assayed against human recombinant TDO2 enzyme (Homo sapiens (Human), UniProt P48775) (assay: Assay for TDO2 enzymatic activity determination). Settings: human recombinant TDO2, L-Trp 1 mM, kynurenine absorbance at 480 nm.
Assay type: biochemical
Procedure: The compounds of formula I, its subformulae, and enantiomers, salts and solvates thereof, are useful to inhibit the enzymatic activity of human TDO2. To measure the TDO2 activity, the procedure described in Dolusic et al. J. Med. Chem.; 2011, 54, […] was adapted: the reaction mixture contained (final concentrations) potassium phosphate buffer (50 mM, pH 7.5), ascorbic acid ([…]), methylene blue (0.125 μM), catalase (40 units/mL, from bovine liver, Sigma), and human recombinant TDO2 enzyme (prepared as described in Dolusic et al. J. Med. Chem.; 2011, 54, 5320-5334; 0.9 μg) without or with the compounds of the present invention at the indicated concentrations (total volume 112.5 μL). The reaction was initiated by the addition of 37.5 μL of L-Trp (final concentration 1 mM) at room temperature. The reaction was conducted at room temperature during one hour and stopped by the addition of 30 μL of 30% (w/v) trichloroacetic acid. To convert N-formylkynurenine into kynurenine, the reaction mixture was incubated at 65° C. for 30 min. […] Kynurenine concentrations were determined by measuring the absorbance at 480 nm. A standard curve was made with pure kynurenine. The TDO activity was measured as described above using ten serial concentrations of the compounds of the present invention. Data were fitted using the Prism™ software (GraphPad Software, Inc.) using standard parameters.

Sequence of human recombinant TDO2 enzyme (P48775 whole entry): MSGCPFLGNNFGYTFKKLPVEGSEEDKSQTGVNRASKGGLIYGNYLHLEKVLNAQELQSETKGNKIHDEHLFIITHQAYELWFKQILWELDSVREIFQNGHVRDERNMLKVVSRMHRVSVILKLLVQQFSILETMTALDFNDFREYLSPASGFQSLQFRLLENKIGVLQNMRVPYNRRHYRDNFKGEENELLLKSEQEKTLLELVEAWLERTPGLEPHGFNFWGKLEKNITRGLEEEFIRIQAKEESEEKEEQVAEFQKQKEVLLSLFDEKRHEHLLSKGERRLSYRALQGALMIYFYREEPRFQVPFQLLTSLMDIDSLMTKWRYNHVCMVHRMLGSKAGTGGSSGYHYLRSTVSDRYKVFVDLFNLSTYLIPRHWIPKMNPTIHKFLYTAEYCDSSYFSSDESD

Point of comparison: `O=S(=O)(c1ccc(-c2c[nH]c3cc(F)ccc23)cc1)N1CCOCC1` [Example 5, 4-((4-(6-fluoro-1H-indol-3-yl)phenyl)sulfonyl)morpholine], IC50 4700 nM. Against it:
- CS(=O)(=O)c1ccc(-c2c[nH]c3cc(F)ccc23)cc1 [Example 1, 6-Fluoro-3-(4-methanesulfonyl-phenyl)-1H-indole] — 3.1-fold lower, 1500 nM
- NCCNC(=O)c1ccc(-c2c[nH]c3cc(F)ccc23)cc1 [Example 2, N-(2-aminoethyl)-4-(6-fluoro-1H-indol-3-yl)benzamide] — 4.3-fold lower, 1100 nM
- O=C(c1ccc(-c2c[nH]c3cc(F)ccc23)cc1)N1CCNCC1 [Example 3, (4-(6-fluoro-1H-indol-3-yl)phenyl)(piperazin-1-yl)methanone] — 2.2-fold lower, 2100 nM
- O=S(=O)(c1ccc(-c2c[nH]c3cc(F)ccc23)cc1)N1CCNCC1 [Example 4, 6-fluoro-3-(4-(piperazin-1-ylsulfonyl)phenyl)-1H-indole] — 2.2-fold lower, 2100 nM
- NS(=O)(=O)c1ccc(-c2c[nH]c3cc(F)ccc23)cc1 [Example 6, 4-(6-fluoro-1H-indol-3-yl)benzenesulfonamide] — 4.7-fold lower, 1000 nM
- O=S(=O)(c1cccc(-c2c[nH]c3cc(F)ccc23)c1)N1CCNCC1 [Example 7, 6-fluoro-3-(3-(piperazin-1-ylsulfonyl)phenyl)-1H-indole] — within 1.5-fold, 4400 nM

These compounds were tested against hTDO2 in human glioblastoma A172 cells (Homo sapiens (Human), UniProt P48775) (assay: Cellular assay for TDO2 activity determination in A172 cells). Settings: overnight incubation, kynurenine absorbance at 480 nm.
Sequence of hTDO2 in human glioblastoma A172 cells (P48775 whole entry): as above
Assay type: cell-based
How it was run: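 Glioblastoma A172 cells with endogenous hTDO2, 1.25×10^4 cells/well, incubated overnight at 37° C. with ten serial compound concentrations in IMDM with 2% FBS. Supernatant kynurenine, after TCA precipitation and 4-(dimethylamino)-benzaldehyde reaction, read at 480 nm against kynurenine standard curve; data curve-fitted.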

Point of comparison: `NS(=O)(=O)c1ccc(-c2c[nH]c3cc(F)ccc23)cc1` [Example 6, 4-(6-fluoro-1H-indol-3-yl)benzenesulfonamide], IC50 82 nM. Against it:
- CS(=O)(=O)c1ccc(-c2c[nH]c3cc(F)ccc23)cc1 [Example 1, 6-Fluoro-3-(4-methanesulfonyl-phenyl)-1H-indole] — within 1.5-fold, 84 nM
- NCCNC(=O)c1ccc(-c2c[nH]c3cc(F)ccc23)cc1 [Example 2, N-(2-aminoethyl)-4-(6-fluoro-1H-indol-3-yl)benzamide] — 1.8-fold higher, 150 nM
- O=C(c1ccc(-c2c[nH]c3cc(F)ccc23)cc1)N1CCNCC1 [Example 3, (4-(6-fluoro-1H-indol-3-yl)phenyl)(piperazin-1-yl)methanone] — within 1.5-fold, 110 nM
- O=S(=O)(c1ccc(-c2c[nH]c3cc(F)ccc23)cc1)N1CCNCC1 [Example 4, 6-fluoro-3-(4-(piperazin-1-ylsulfonyl)phenyl)-1H-indole] — 1.6-fold higher, 130 nM
- O=S(=O)(c1ccc(-c2c[nH]c3cc(F)ccc23)cc1)N1CCOCC1 [Example 5, 4-((4-(6-fluoro-1H-indol-3-yl)phenyl)sulfonyl)morpholine] — 3-fold higher, 250 nM
- O=S(=O)(c1cccc(-c2c[nH]c3cc(F)ccc23)c1)N1CCNCC1 [Example 7, 6-fluoro-3-(3-(piperazin-1-ylsulfonyl)phenyl)-1H-indole] — 4.1-fold higher, 340 nM
- O=C1CN(S(=O)(=O)c2ccc(-c3c[nH]c4cc(F)ccc34)cc2)CCN1C[C@H](O)CO [Example 147, (S)-1-(2,3-dihydroxypropyl)-4-((4-(6-fluoro-1H-indol-3-yl)phenyl)sulfonyl)piperazin-2-one] — 5.4-fold higher, 441 nM
- NCCN1CCN(S(=O)(=O)c2ccc(-c3c[nH]c4cc(F)ccc34)cc2)CC1=O [Example 148, 1-(2-aminoethyl)-4-((4-(6-fluoro-1H-indol-3-yl)phenyl)sulfonyl)piperazin-2-one] — 7-fold higher, 570 nM
- CN(C)CCN1CCN(S(=O)(=O)c2ccc(-c3c[nH]c4cc(F)ccc34)cc2)CC1=O [Example 149, 1-(2-(dimethylamino)ethyl)-4-((4-(6-fluoro-1H-indol-3-yl)phenyl)sulfonyl)piperazin-2-one] — 5.4-fold higher, 443 nM
- CNCCN1CCN(S(=O)(=O)c2ccc(-c3c[nH]c4cc(F)ccc34)cc2)CC1=O [Example 150, 4-((4-(6-fluoro-1H-indol-3-yl)phenyl)sulfonyl)-1-(2-(methylamino)ethyl) piperazin-2-one] — 4.5-fold higher, 365 nM
- O=C1CN(S(=O)(=O)c2ccc(-c3c[nH]c4cc(F)ccc34)cc2)CCN1CCO [Example 151, 4-((4-(6-fluoro-1H-indol-3-yl)phenyl)sulfonyl)-1-(2-hydroxyethyl)piperazin-2-one] — 5.4-fold higher, 439 nM
- NCCCN1CCN(S(=O)(=O)c2ccc(-c3c[nH]c4cc(F)ccc34)cc2)CC1=O [Example 152, 1-(3-aminopropyl)-4-((4-(6-fluoro-1H-indol-3-yl)phenyl-)sulfonyl)piperazin-2-one] — 16-fold higher, 1320 nM
- CNCCCN1CCN(S(=O)(=O)c2ccc(-c3c[nH]c4cc(F)ccc34)cc2)CC1=O [Example 153, 4-((4-(6-fluoro-1H-indol-3-yl)phenyl)sulfonyl)-1-(3-(methylamino)propyl)piperazin-2-one] — 13-fold higher, 1040 nM
- CN(C)CCCN1CCN(S(=O)(=O)c2ccc(-c3c[nH]c4cc(F)ccc34)cc2)CC1=O [Example 154, 1-(3-(dimethylamino)propyl)-4-((4-(6-fluoro-1H-indol-3-yl)phenyl)sulfonyl) piperazine-2-one] — 4.4-fold higher, 360 nM
- Cc1noc(CNS(=O)(=O)c2ccc(-c3c[nH]c4cc(F)ccc34)cc2)n1 [Example 155, 4-(6-fluoro-1H-indol-3-yl)-N-((3-methyl-1,2,4-oxadiazol-5-yl)methyl) benzenesulfonamide] — 2.3-fold higher, 186 nM
- O=S(=O)(NCc1ncon1)c1ccc(-c2c[nH]c3cc(F)ccc23)cc1 [Example 156, N-((1,2,4-oxadiazol-3-yl)methyl)-4-(6-fluoro-1H-indol-3-yl)benzenesulfonamide] — 1.8-fold higher, 150 nM
- O=S(=O)(NCCO)c1ccc(-c2c[nH]c3cc(F)ccc23)cc1 [Example 157, 4-(6-fluoro-1H-indol-3-yl)-N-(2-hydroxyethyl)-benzenesulfonamide] — within 1.5-fold, 66 nM
- O=S(=O)(NCCO)c1ccc(-c2c[nH]c3cc(F)ccc23)c(Cl)c1 [Example 158, 3-chloro-4-(6-fluoro-1H-indol-3-yl)-N-(2-hydroxyethyl) benzenesulfonamide] — 3.5-fold higher, 283 nM
- Cc1nc(CCNS(=O)(=O)c2ccc(-c3c[nH]c4cc(F)ccc34)cc2)c[nH]1 [Example 161, 4-(6-fluoro-1H-indol-3-yl)-N-(2-(2-methyl-1H-imidazol-4-yl)ethyl)benzenesulfonamide] — 2.7-fold higher, 220 nM
- CCc1cc(-c2c[nH]c3cc(F)ccc23)ccc1S(=O)(=O)NCCC(N)=O [Example 162, 3-(2-ethyl-4-(6-fluoro-1H-indol-3-yl)phenylsulfonamido)-propanamide] — 4.9-fold higher, 405 nM
- CC(C)c1cc(-c2c[nH]c3cc(F)ccc23)ccc1S(=O)(=O)NCCC(N)=O [Example 163, 3-((4-(6-fluoro-1H-indol-3-yl)-2-isopropylphenyl)-sulfonamido) propanamide] — 27-fold higher, 2220 nM
- CC(C)Cc1cc(-c2c[nH]c3cc(F)ccc23)ccc1S(=O)(=O)NCCC(N)=O [Example 164, 3-((4-(6-fluoro-1H-indol-3-yl)-2-isobutylphenyl)-sulfonamido)propanamide] — 72-fold higher, 5930 nM
- COCc1cc(-c2c[nH]c3cc(F)ccc23)ccc1S(=O)(=O)NCCC(N)=O [Example 165, 3-((4-(6-fluoro-1H-indol-3-yl)-2-(methoxymethyl)phenyl)-sulfonamido) propanamide] — 4.2-fold higher, 341 nM
- CC(C)Oc1cc(-c2c[nH]c3cc(F)ccc23)ccc1S(=O)(=O)NCCC(N)=O [Example 166, 3-((4-(6-fluoro-1H-indol-3-yl)-2-isopropoxyphenyl)-sulfonamido)propanamide] — 50-fold higher, 4060 nM
- NC(=O)CCNS(=O)(=O)c1ccc(-c2c[nH]c3cc(F)ccc23)cc1CO [Example 167, 3-((4-(6-fluoro-1H-indol-3-yl)-2-(hydroxymethyl)-phenyl)sulfonamido)propanamide] — 2-fold lower, 41 nM
- NC(=O)CCNS(=O)(=O)c1ccc(-c2c[nH]c3cc(F)ccc23)cc1C(F)(F)F [Example 168, 3-((4-(6-fluoro-1H-indol-3-yl)-2-(trifluoromethyl)phenyl)-sulfonamido)propanamide] — 3.3-fold higher, 270 nM
- O=C(CCNS(=O)(=O)c1ccc(-c2c[nH]c3cc(F)ccc23)cc1)N1C[C@@H](O)[C@@H](O)C1 [Example 169, N-(3-((cis)-3,4-dihydroxypyrrolidin-1-yl)-3-oxopropyl)-4-(6-fluoro-1H-indol-3-yl)benzenesulfonamide] — 6.2-fold higher, 511 nM
- O=C(CCNS(=O)(=O)c1ccc(-c2c[nH]c3cc(F)ccc23)cc1)N1C[C@@H](O)[C@H](O)C1 [Example 170, (+)-N-(3-((3R,4R)-3,4-dihydroxypyrrolidin-1-yl)-3-oxopropyl)-4-(6-fluoro-1H-indol-3-yl) benzenesulfonamide] — 15-fold higher, 1210 nM
- O=C(CCNS(=O)(=O)c1ccc(-c2c[nH]c3cc(F)ccc23)cc1)N1C[C@H](O)[C@@H](O)C1 [Example 171, (−)-N-(3-((3S,4S)-3,4-dihydroxypyrrolidin-1-yl)-3-oxopropyl)-4-(6-fluoro-1H-indol-3-yl)benzenesulfonamide] — 21-fold higher, 1740 nM
- N[C@@H]1CN(C(=O)CCNS(=O)(=O)c2ccc(-c3c[nH]c4cc(F)ccc34)cc2)C[C@H]1F [Example 174, (+)-N-(3-((3R,4R)-3-amino-4-fluoropyrrolidin-1-yl)-3-oxopropyl)-4-(6-fluoro-1H-indol-3-yl)benzenesulfonamide] — 4.7-fold higher, 383 nM
- NC(=O)CCNS(=O)(=O)c1ccc(-c2c[nH]c3cc(F)ccc23)cc1CC(F)F [Example 175, 3-((2-(2,2-difluoroethyl)-4-(6-fluoro-1H-indol-3-yl)-phenyl)sulfonamido)propanamide] — 5.5-fold higher, 449 nM
- NS(=O)(=O)c1ccc(-c2c[nH]c3cc(F)ccc23)cc1CO [Example 176, 4-(6-fluoro-1H-indol-3-yl)-2-(hydroxymethyl)benzenesulfonamide] — within 1.5-fold, 55 nM
- NCc1cc(-c2c[nH]c3cc(F)ccc23)ccc1S(N)(=O)=O [Example 177, 2-(aminomethyl)-4-(6-fluoro-1H-indol-3-yl)benzenesulfonamide] — 8.5-fold higher, 700 nM
- CS(=O)(=O)c1ccc(-c2c[nH]c3cc(F)ccc23)cc1CN [Example 178, (5-(6-fluoro-1H-indol-3-yl)-2-(methylsulfonyl)phenyl)methanamine] — 5-fold higher, 411 nM
- CS(=O)(=O)c1ccc(-c2c[nH]c3cc(F)ccc23)cc1CCO [Example 179, 2-(5-(6-fluoro-1H-indol-3-yl)-2-(methylsulfonyl)phenyl)ethanol] — within 1.5-fold, 79 nM
